Where “and” joins values, the source holds several entries; their conditions need not be identical. Equal entries are not always repeated.
What was measured:
[1] = tested on: Human KB-31 epidermoid carcinoma cells; test: Proliferation inhibition of KB-31 cells (methylene blue staining); format: cell-based; conditions: KB-31 cell line, four days incubation with compound, repeated lines are separate determinations
Method: (§1) Stock solutions of the test compound of formula I 10 mM) in DMSO are prepared and stored at −20° C. Human KB-31 and (multidrug-resistant, P-gp 170 overexpressing) KB-8511 epidermoid carcinoma cells are from Dr. M. Baker, Roswell Park Memorial Institute (Buffalo, N.Y., USA) (for description see also Akiyama et al., Somat. Cell. Mol. Genetics 11, 117-126 (1985) und Fojo A., et al., Cancer Res. 45, 3002-3007 (1985)—KB-31 und KB-851 I both are derivatives of the KB-cell line (American Type Culture Collection) and are human epidermoid carcinoma cells. KB-31 cells can be cultivated in mono-layers using calf serum (M.A. Bio-products), L-glutamine (Flow), penicillin (50 Units/ml) und streptomycin (50 μg/ml (Flow); they then grow with a doubling rate of about 22 hours, and the relative efficiency of plating them out lies at about 60%. […] The cells are incubated at 37° C. in an incubator with 5% V/V CO2 and at 80% relative atmospheric humidity in MEM Alpha-medium which contains ribonucleosides und desoxyribonucleosides (Gibco BRL), complemented with 10 IU Penicillin, 10 μg/ml Streptomycin and 5% fetal calf serum. The cells are spread in an amount of 1.5×10^3 cells/well in 96-well-microtiter plates and incubated overnight. Serial dilutions of the test compounds in culture medium are added at day 1. The plates are then incubated for an additional period of four days, after which the cells are fixed using 3.3% v/v glutaraldehyde washed with water and finally stained with 0.05% w/v methylene blue. After washing again, the stain is eluted with 3% HCl and the optical density at 665 nm is measured with a SpectraMax 340 (Molecular Devices, Sunnyvale, Calif.). IC50-values are determined by mathematically fitting the data to curves using the SoftPro2.0 program (Molecular Devices, Sunnyvale, Calif.) and the formula […]/[(OD control)−(OD start)]×100.
(§2) The IC50 is defined as the concentration of a test compound at the end of the incubation period that leads to 50% of the number of cells in comparison to controls without test compound (concentration at halfmaximal inhibition of cell growth).
(§3) Proliferation inhibition (IC50) of epothilone derivatives (Examples 1-16) towards KB-31 and KB-8511 cell lines. Method as described above.

[2] = tested on: (multidrug-resistant, P-gp 170 overexpressing) KB-8511 epidermoid carcinoma cells; test: Proliferation inhibition of KB-8511 cells (methylene blue staining); format: cell-based, human; conditions: KB-8511 cell line (multidrug-resistant, P-gp 170 overexpressing), four days incubation with compound, repeated lines are separate determinations
Method: as §1, §2, §3

SMILES | IC50 ([1]; Homo sapiens, KB 3-1, 96 h) [µM] | IC50 ([2]; Homo sapiens, 96 h) [µM] | IC50 [2] | IC50 [1]
C/C1=C/C[C@@H](/C(C)=C/c2csc(C)n2)OC(=O)CCC(C)(C)C(=O)[C@H](C)[C@@H](O)[C@@H](C)CCC1 [Example 1, (Z)-(7R,8S,9S,16S)-8-Hydroxy-5,5,7,9,13-pentamethyl-16-[(E)-1-methyl-2-(2-methyl-thiazol-4-yl)-vinyl]-oxacyclohexadec-13-ene-2,6-dione] | 0.106 | 0.0754 |  | 
Cc1nc2cc([C@@H]3C/C=C/CCC[C@H](C)[C@H](O)[C@@H](C)C(=O)C(C)(C)[C@@H](O)CC(=O)O3)ccc2n1C [Example 11, (E)-(4S,7R,8S,9S,16S)-16-(1,2-Dimethyl-1H-benzoimidazol-5-yl)-4,8-dihydroxy-5,5,7,9-tetramethyl-oxacyclohexadec-13-ene-2,6-dione] |  | 0.0251 | 0.0366 µM and 0.037 µM | 
Cc1nc2cc([C@@H]3C/C=C/CCC[C@H](C)[C@H](O)[C@@H](C)C(=O)C(C)(C)/C=C/C(=O)O3)ccc2n1C [Example 13, (3E,13E)-(7R,8S,9S,16S)-16-(1,2-Dimethyl-1H-benzoimidazol-5-yl)-8-hydroxy-5,5,7,9-tetramethyl-oxacyclohexadeca-3,13-diene-2,6-dione] | 0.144 | 0.0741 | 0.0688 µM and 0.0735 µM | 0.138 µM and 0.152 µM
Cc1nc2cc([C@@H]3C/C=C\CCC[C@H](C)[C@H](O)[C@@H](C)C(=O)C(C)(C)CCC(=O)O3)ccc2n1C [Example 3, 16-(1,2-Dimethyl-1H-benzoimidazol-5-yl)-8-hydroxy-5,5,7,9-tetramethyl-oxacyclohexadec-13-ene-2,6-dione] | 0.0549 | 0.0504 | 0.0623 µM | 0.062 µM
Cc1nc2cc([C@@H]3C/C=C/CCC[C@H](C)[C@H](O)[C@@H](C)C(=O)C(C)(C)CCC(=O)O3)ccc2n1C [Example 7, (E)-(7R,8S,9S,16S)-16-(1,2-Dimethyl-1H-benzoimidazol-5-yl)-8-hydroxy-5,5,7,9-tetramethyl-oxacyclohexadec-13-ene-2,6-dione] | 0.0391 | 0.0502 | 0.0499 µM | 0.0419 µM
Cc1nc2cc([C@@H]3C[C@@H]4O[C@H]4CCC[C@H](C)[C@H](O)[C@@H](C)C(=O)C(C)(C)/C=C/C(=O)O3)ccc2n1C [Example 14, (E)-(1S,3S,10R,11S,12S,16S)-3-(1,2-Dimethyl-1H-benzoimidazol-5-yl)-11-hydroxy-8,8,10,12-tetramethyl-4,17-dioxa-bicyclo[14.1.0]heptadec-6-ene-5,9-dione] | 0.005 | 0.0124 | 0.00992 µM | 0.0035 µM
Cc1nc2cc([C@@H]3C[C@@H]4O[C@@H]4CCC[C@H](C)[C@H](O)[C@@H](C)C(=O)C(C)(C)CCC(=O)O3)ccc2n1C [Example 4, 3-(1,2-Dimethyl-1H-benzoimidazol-5-yl)-11-hydroxy-8,8,10,12-tetramethyl-4,17-dioxa-bicyclo[14.1.0]heptadecane-5,9-dione] | 0.00656 | 0.0366 | 0.0392 µM and 0.0371 µM | 0.00795 µM and 0.00765 µM
C/C(=C\c1csc(C)n1)[C@@H]1C[C@@H]2O[C@]2(C)CCC[C@H](C)[C@H](O)[C@@H](C)C(=O)C(C)(C)CCC(=O)O1 [Example 2, (1S,3S,10R,11S,12S,16R)-11-Hydroxy-8,8,10,12,16-pentamethyl-3-[(E)-1-methyl-2-(2-methyl-thiazol-4-yl)-vinyl]-4,17-dioxa-bicyclo[14.1.0]heptadecane-5,9-dione] | 0.00512 | 0.00218 |  | 
Cc1nc2cc([C@@H]3C[C@@H]4C[C@H]4CCC[C@H](C)[C@H](O)[C@@H](C)C(=O)C(C)(C)[C@@H](O)CC(=O)O3)ccc2n1C [Example 16, (1S,3S,7S,10R,11S,12S,16R)-3-(1,2-Dimethyl-1H-benzoimidazol-5-yl)-7,11-dihydroxy-8,8,10,12-tetramethyl-4-oxa-bicyclo[14.1.0]heptadecane-5,9-dione] | 0.000149 | 0.00011 |  | 
Cc1nc2cc([C@@H]3C[C@@H]4O[C@H]4CCC[C@H](C)[C@H](O)[C@@H](C)C(=O)C(C)(C)CCC(=O)O3)ccc2n1C [Example 8, (1S,3S,10R,11S,12S,16S)-3-(1,2-Dimethyl-1H-benzoimidazol-5-yl)-11-hydroxy-8,8,10,12-tetramethyl-4,17-dioxa-bicyclo[14.1.0]heptadecane-5,9-dione] | 0.00276 | 0.00583 |  | 
Cc1nc2cc([C@@H]3C[C@@H]4O[C@H]4CCC[C@H](C)[C@H](O)[C@@H](C)C(=O)C(C)(C)[C@@H](O)CC(=O)O3)ccc2n1C [Example 12, (1S,3S,7S,10R,11S,12S,16S)-3-(1,2-Dimethyl-1H-benzoimidazol-5-yl)-7,11-dihydroxy-8,8,10,12-tetramethyl-4,17-dioxa-bicyclo[14.1.0]heptadecane-5,9-dione] | 0.00027 | 0.00145 | 0.00167 µM and 0.00096 µM | 0.00024 µM and 0.000228 µM
Cc1nc2cc([C@@H]3C[C@@H]4O[C@]4(C)CCC[C@H](C)[C@H](O)[C@@H](C)C(=O)C(C)(C)CCC(=O)O3)ccc2n1C [Example 6, (1S,3S,10R,11S,12S,16R)-3-(1,2-Dimethyl-1H-benzoimidazol-5-yl)-11-hydroxy-8,8,10,12,16-pentamethyl-4,17-dioxa-bicyclo[14.1.0]heptadecane-5,9-dione] |  | < 0.002 | 0.00161 µM | 
Cc1nc2cc([C@@H]3C[C@@H]4C[C@@H]4CCC[C@H](C)[C@H](O)[C@@H](C)C(=O)C(C)(C)[C@@H](O)CC(=O)O3)ccc2n1C (stereo in doubt) [Example 15, 3-(1,2-Dimethyl-1H-benzoimidazol-5-yl)-7,11-dihydroxy-8,8,10,12-tetramethyl-4-oxa-bicyclo[14.1.0]heptadecane-5,9-dione] | 0.000467 | 0.00101 |  | 

— patent publication US7825141B2, “Epothilone derivatives” (Novartis AG, priority 2004, dated 2010)
